Laboratory results taken from US10131652B2, “Pyrimidinyloxy benzene derivatives as herbicides” (E. I. DU PONT DE NEMOURS AND COMPANY, priority 2014, dated 2018).
Where two headings read alike, the source gives them in different places.

Tests used:
Assay type in all cases: in vivo
corn (Zea mays) = assay: Test B pre-/postemergence plant response; conditions: Zea mays, 240 h, 1000 g ai/ha, 0 to 100 scale (0 no effect, 100 complete control)
How it was run: (§1)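 Greenhouse pots, loam/sand soil; compound formulated with surfactant in non-phytotoxic solvent. Preemergence soil spray and postemergence spray at 1–2 leaf stage run simultaneously. Visual injury, 0–100, about 10 days post-treatment.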

[1] = system: wheat (Triticum aestivum); assay: Test B pre-/postemergence plant response; conditions: Triticum aestivum, 240 h, 1000 g ai/ha, 0 to 100 scale (0 no effect, 100 complete control), read-out: Plant response rating, Wheat
How it was run: as §1

[2] = system: barnyardgrass (Echinochloa crus-galli); assay: Test B pre-/postemergence plant response; conditions: Echinochloa crus-galli, 240 h, 1000 g ai/ha, 0 to 100 scale (0 no effect, 100 complete control), read-out: Plant response rating, Barnyardgrass
How it was run: as §1

[3] = system: pigweed (Amaranthus retroflexus); assay: Test B pre-/postemergence plant response; conditions: Amaranthus retroflexus, 240 h, 1000 g ai/ha, 0 to 100 scale (0 no effect, 100 complete control), read-out: Plant response rating, Pigweed
How it was run: as §1

[4] = system: giant foxtail (Setaria faberii); assay: Test B pre-/postemergence plant response; conditions: Setaria faberi, 240 h, 1000 g ai/ha, 0 to 100 scale (0 no effect, 100 complete control), read-out: Plant response rating, Foxtail, Giant
How it was run: as §1

rice (Oryza sativa) = assay: Test C flooded paddy test plant response; conditions: Oryza sativa; Flood, 250 g ai/ha; scale of 0 to 100 where 0 is no effect and 100 is complete control; 13 to 15 days; read-out: Rice plant response rating
How it was run: (§2)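 Flooded-pot format, 3 cm water over soil maintained for the test duration; test compounds dispensed into the water at the 2-leaf stage. Greenhouse holding 13 to 15 days. Plants evaluated visually relative to untreated controls, 0 meaning no effect and 100 complete control.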

[5] = system: barnyardgrass (Echinochloa crus-galli); assay: Test C flooded paddy test plant response; conditions: Echinochloa crus-galli; Flood, 250 g ai/ha; scale of 0 to 100 where 0 is no effect and 100 is complete control; 13 to 15 days; read-out: Barnyardgrass plant response rating
How it was run: as §2

[6] = system: ducksalad (Heteranthera limosa); assay: Test C flooded paddy test plant response; conditions: Heteranthera limosa; Flood, 250 g ai/ha; scale of 0 to 100 where 0 is no effect and 100 is complete control; 13 to 15 days; read-out: Ducksalad plant response rating
How it was run: as §2

[7] = system: small-flower umbrella sedge (Cyperus difformis); assay: Test C flooded paddy test plant response; conditions: Cyperus difformis; Flood, 250 g ai/ha; scale of 0 to 100 where 0 is no effect and 100 is complete control; 13 to 15 days; read-out: Sedge, Umbrella plant response rating
How it was run: as §2

[8] = system: velvetleaf (Abutilon theophrasti); assay: Test D pre-/postemergence plant response; conditions: Abutilon theophrasti; for pest or weed control at 8 g/ha: 8 g ai/ha; for pest or weed control at 16 g/ha: 16 g ai/ha; for pest or weed control at 31 g/ha: 31 g ai/ha; for pest or weed control at 62 g/ha: 62 g ai/ha
Text: (§3) Seeds of plant species selected from blackgrass (Alopecurus myosuroides), Italian ryegrass (Lolium multiflorum), winter wheat (Triticum aestivum), galium (catchweed bedstraw, Galium aparine), corn (Zea mays), large (Lg) crabgrass (Digitaria sanguinalis), giant foxtail (Setaria faberii), johnsongrass (Sorghum halepense), lambsquarters (Chenopodium album), morningglory (Ipomoea coccinea), yellow nutsedge (Cyperus esculentus), pigweed (Amaranthus retroflexus), ragweed (common ragweed, Ambrosia elatior), soybean (Glycine max), bamyardgrass (Echinochloa crus-galli), oilseed rape (Brassica napus), waterhemp (common waterhemp, Amaranthus rudis), and velvetleaf (Abutilon theophrasti) were planted into a blend of loam soil and sand and treated preemergence with test chemicals formulated in a non-phytotoxic solvent mixture which included a surfactant. At the same time, plants selected from these crop and weed species and also kochia (Kochia scoparia), wild oat (Avena fatua), and chickweed (common chickweed, Stellaria media) were planted in pots containing Redi-Earth® planting medium (Scotts Company, 14111 Scottslawn Road, Marysville, Ohio 43041) comprising spaghnum peat moss, vermiculite, wetting agent and starter nutrients and treated with postemergence applications of test chemicals formulated in the same manner. Plants ranged in height from 2 to 18 cm (1- to 4-leaf stage) for postemergence treatments. Treated plants and controls were maintained in a greenhouse for 13 to 15 days, after which time all species were compared to controls and visually evaluated. Plant response ratings, summarized in Table D, are based on a scale of 0 to 100 where 0 is no effect and 100 is complete control. A dash (-) response means no test result.

[9] = system: johnsongrass (Sorghum halepense); assay: Test D pre-/postemergence plant response; conditions: Sorghum halepense; for pest or weed control at 8 g/ha: 8 g ai/ha; for pest or weed control at 16 g/ha: 16 g ai/ha; for pest or weed control at 31 g/ha: 31 g ai/ha; for pest or weed control at 62 g/ha: 62 g ai/ha
Text: as §3

[10] = system: lambsquarters (Chenopodium album); assay: Test D pre-/postemergence plant response; conditions: Chenopodium album; for pest or weed control at 8 g/ha: 8 g ai/ha
Text: as §3

[11] = post-emergence, Postemergence, scale 0 to 100 (0 no effect, 100 complete control), read-out: Velvetleaf plant response rating
[12] = pre-emergence, Preemergence, scale 0 to 100 (0 no effect, 100 complete control), read-out: Plant response rating, Velvetleaf
[13] = post-emergence, Postemergence, scale 0 to 100 (0 no effect, 100 complete control), read-out: Johnsongrass plant response rating
[14] = pre-emergence, Preemergence, scale 0 to 100 (0 no effect, 100 complete control), read-out: Plant response rating, Johnsongrass

FC(F)c1cc(-c2ccccc2Oc2ncc(Cl)cn2)no1 [Compound 35, 5-chloro-2-[2-[5-(difluoromethyl)-3-isoxazolyl]phenoxy]pyrimidine]
Corn plant response rating (crop injury, 0 = no effect, 100 = complete kill) at 1000 g/ha (corn (Zea mays); post-emergence, Postemergence): 90%
Corn plant response rating (crop injury, 0 = no effect, 100 = complete kill) at 1000 g/ha (corn (Zea mays); pre-emergence, Preemergence): 30%
plant injury at 1000 g/ha ([1]; post-emergence, Postemergence): 80%
plant injury at 1000 g/ha ([1]; pre-emergence, Preemergence): 60%
pest or weed control at 1000 g/ha ([2]; post-emergence, Postemergence): 100%
pest or weed control at 1000 g/ha ([2]; pre-emergence, Preemergence): 100%
pest or weed control at 1000 g/ha ([3]; post-emergence, Postemergence): 100%
pest or weed control at 1000 g/ha ([3]; pre-emergence, Preemergence): 10%
pest or weed control at 1000 g/ha ([4]; post-emergence, Postemergence): 90%
pest or weed control at 1000 g/ha ([4]; pre-emergence, Preemergence): 100%
plant injury at 250 g/ha (rice (Oryza sativa)): 80%
pest or weed control at 250 g/ha [5]: 65%
pest or weed control at 250 g/ha [6]: 100%
pest or weed control at 250 g/ha [7]: 100%
pest or weed control at 8 g/ha ([8]; post-emergence, Postemergence, read-out: Plant response rating (scale 0 to 100), Velvetleaf): 30%
pest or weed control at 16 g/ha [8, 11]: 50%
pest or weed control at 31 g/ha [8, 11]: 55%
pest or weed control at 62 g/ha ([8]; post-emergence, Postemergence, scale 0 to 100, 0 no effect, 100 complete control, read-out: Plant response rating, Velvetleaf): 65%
pest or weed control at 8 g/ha [8, 12]: 65%
pest or weed control at 16 g/ha [8, 12]: 85%
pest or weed control at 31 g/ha [8, 12]: 85%
pest or weed control at 62 g/ha [8, 12]: 100%
pest or weed control at 8 g/ha ([9]; post-emergence, Postemergence, read-out: Plant response rating (scale 0 to 100), Johnsongrass): 0%
pest or weed control at 16 g/ha [9, 13]: 10%
pest or weed control at 31 g/ha [9, 13]: 5%
pest or weed control at 62 g/ha ([9]; post-emergence, Postemergence, scale 0 to 100, 0 no effect, 100 complete control, read-out: Plant response rating, Johnsongrass): 35%
pest or weed control at 8 g/ha [9, 14]: 0%
pest or weed control at 16 g/ha [9, 14]: 10%
pest or weed control at 31 g/ha [9, 14]: 60%
pest or weed control at 62 g/ha [9, 14]: 98%
pest or weed control at 8 g/ha ([10]; post-emergence, Postemergence, read-out: Plant response rating (scale 0 to 100), Lambsquarters): 75%
pest or weed control at 16 g/ha ([10]; post-emergence, Postemergence, 16 g ai/ha, scale 0 to 100 (0 no effect, 100 complete control), read-out: Lambsquarters plant response rating): 80%
pest or weed control at 31 g/ha ([10]; post-emergence, Postemergence, 31 g ai/ha, scale 0 to 100 (0 no effect, 100 complete control), read-out: Lambsquarters plant response rating): 85%
pest or weed control at 62 g/ha ([10]; post-emergence, Postemergence, 62 g ai/ha, scale 0 to 100, 0 no effect, 100 complete control, read-out: Plant response rating, Lambsquarters): 95%
pest or weed control at 8 g/ha ([10]; pre-emergence, Preemergence, scale 0 to 100 (0 no effect, 100 complete control), read-out: Plant response rating, Lambsquarters): 100%
